Reference: patent US9260382B2, “Methods of reducing virulence in bacteria” (priority 2010, dated 2016)
Entries after “also recorded” stand apart in the source; their conditions may differ.

Experiments:
hrpA promoter (T3SS) [1] = experiment: GFP reporter plasmid phrpA, flow cytometry (FACS) of hrpA promoter activity; type: cell-based, Dickeya dadantii 3937; conditions: for mean fluorescence intensity of GFP, hrpA expression: D. dadantii 3937 (phrpA), MM + 100 μM compound; for minimal effective concentration: Dickeya dadantii, read-out: minimal inhibitory concentration on hrpA expression (concentration showing inhibitory effect); for inhibitory activity on T3SS gene (hrpA) expression, in words: D. dadantii 3937, reporter plasmid phrpA, 100 μM
Method: FACS analysis of promoter activity of dspE, hrpA, hrpL, hrpN, and hrpS was carried out as described (Peng et al., 2006). Briefly, the wild-type Ech3937 and the mutant strains carrying the promoter reporter plasmid were grown on LB broth at 28° C. overnight and transferred to appropriate media. For FACS analysis, samples were collected by centrifugation, washed with 1× phosphate buffer saline (PBS) at 13,000 rpm for 1 min, and re-suspended in 1×PBS to ca 10^6 CFU/ml prior to being run in a FACS Calibur flow cytometer (BD Biosciences, CA). Three replicates were performed for each treatment.
To identify potential compounds that repress activation of T3SS, analogs and isomers of TCA and intermediates of salicylic acid and phenypropanoid biosynthesis pathways in plants were further screened for their effect on Ech3937 hrpA expression by flow cytometry (Table 9). A green fluorescent protein (GFP) reporter plasmid phrpA (pProbe-AT derivative with PCR fragment containing hrpA promoter region) was constructed, resulting in a transcriptional fusion of hrpA promoter with GFP gene. Bacterial cells containing phrpA plasmid were grown in MM supplemented with 0.1 mM of each compound. GFP intensity, which is a measurement of hrpA promoter activity, was measured by flow cytometry.
hrpA encodes the T3SS pilus required for protein translocation into plant cells. To test for an inhibitory effect on T3SS hrpA expression, the reporter plasmid phrpA was used to measure the effects of these compounds on hrpA expression. The reporter plasmid phrpA encodes a transcriptional fusion of the hrpA promoter controlling expression of green fluorescent protein (gfp). 50 μL of bacterial suspension of D. dadantii 3937 carrying the hrpA reporter (optical density at 600 nm OD600=1.0) was used as the initial inoculum and added to 5 mL of MM or MM supplemented with 100 μM of one of the compounds. The expression level of hrpA of these bacterial cells was measured by measuring GFP intensity of gated populations of the bacterial cells by flow cytometry and analyzed with Cell Quest software (BD Biosciences, San Jose, Calif.). The fluorescence intensities were an average GFP fluorescence intensity of total bacterial cells. Compounds were assayed two different times (12 and 24 h of bacterial growth) with T3SS minimal media (MM) as the control treatment for each set of experiment. Values presented in Table 14 are mean fluorescence intensity of GFP, representative of two experiments, presented as the average of three replicates with standard deviation (SD).

hrpA promoter (T3SS) [2] = experiment: hrpA promoter-probe phrpA in Erwinia amylovora 273, flow cytometry; type: cell-based; conditions: Ea273 (phrpA), HIM + 100 μM compound
Method: Wild-type Erwinia amylovora 273 was used in this study. The promoter-probe plasmid phrpA was constructed as follows. The hrpA promoter region of Erwinia amylovora 273 was amplified and cloned into pPROBE-NT to produce PhrpA. Plasmid PhrpA was electroporated into Erwinia amylovora 273. Expression of hrpA was analyzed using a FACS Calibur flow cytometer (BD Biosciences, CA). Wild-type Erwinia amylovora 273 containing phrpA was cultured in a hrp-inducing medium (HIM) containing dimethyl sulfoxide (DMSO; solvent of chemical compounds), or HIM supplemented with 100 μM of each compound, and promoter activity was assessed at 6 h and 9 h by measuring GFP intensity using flow cytometry (Table 19).

Molecule	mean fluorescence intensity of GFP, hrpA expression (hrpA promoter (T3SS) [1]; 12 h)	mean fluorescence intensity of GFP, hrpA expression (hrpA promoter (T3SS) [1]; 24 h)	Avg MFI ± SD, hrpA expression (hrpA promoter (T3SS) [2]; 6 h)	Avg MFI ± SD, hrpA expression (hrpA promoter (T3SS) [2]; 9 h)	minimal effective concentration (hrpA promoter (T3SS) [1]) [µM]	inhibitory activity on T3SS gene (hrpA) expression, in words (hrpA promoter (T3SS) [1])	Mean Fluorescence Intensity of GFP (hrpA, phrpA) (hrpA promoter (T3SS) [1]; Trial 2, MM supplemented with compound at 100 μM)
CCOC(=O)[C@@H]1C[C@H]1c1ccc(OC)cc1 (relative stereo) [Compound 100, Ethyl trans-2-(4-methoxyphenyl)-1-cyclopropanecarboxylate]	45.3 ± 3.4	119.1 ± 22.1	447.8 ± 20.2	594.6 ± 3.5			
COc1ccc([C@@H]2C[C@H]2C(=O)O)cc1 (relative stereo) [Compound 105, trans-2-(4-Methoxyphenyl)-1-cyclopropanecarboxylic acid]	22.9 ± 2.6	82.4 ± 5.8	345.3 ± 11.9	200.2 ± 11.0	100		
O=C(O)[C@@H]1C[C@H]1c1ccc(O)cc1 (relative stereo) [Compound 107, trans-2-(4-Hydroxyphenyl)-1-cyclopropanecarboxylic acid]	45.9 ± 2.7	122.1 ± 17.9	1464.3 ± 76.5	1348.0 ± 82.6		no inhibitory activity	
NC(=O)/C=C/c1ccc(O)cc1 [Compound 102, trans-4-Hydroxycinnamaide]	21.1 ± 1.2	60.8 ± 10.6	1134.0 ± 36.7	766.4 ± 94.8	100	did not show any inhibitory activity	
O=C(O)/C=C/c1ccc(-c2ccccc2)cc1 [Compound 108, trans-4-Phenylcinnamic acid]	31.6 ± 2.5	109.0 ± 19.8				inactive	
NC(=O)/C=C/c1ccc(Cl)cc1 [Compound 109, trans-4-Chlorocinnamide]	35.7 ± 6.3	81.5 ± 3.8	172.9 ± 20.5	90.6 ± 12.0			
O=C(O)/C=C/c1ccc(F)cc1 [Compound 110, trans-4-Fluorocinnamic acid]	63.4 ± 8.0	183.8 ± 19.2	279.2 ± 5.3	152.4 ± 0.7		inactive	
CN(C)c1ccc(/C=C/C(=O)O)cc1 [Compound 112, trans-4-Dimethylaminocinnamic acid]	23.8 ± 4.3	60.7 ± 6.4	87.0 ± 4.0	37.3 ± 3.7			
O=C(O)/C=C/c1ccc(C(F)(F)F)cc1 [Compound 113, trans-4-Trifluoromethylcinnamic acid]	24.4 ± 0.9	68.5 ± 5.7	84.2 ± 7.5	97.4 ± 23.6	100	inactive	
CCOP(=O)(/C=C/c1ccc(O)cc1)OCC [Compound 114, Diethyl trans-2-(4-hydroxyphenyl)-vinylphosphonate]	55.4 ± 1.0	76.5 ± 5.6	495.8 ± 14.2	661.2 ± 134.3		did not exhibit any activity	
O=P(O)(O)/C=C/c1ccc(O)cc1 [Compound 115, trans-2-(4-Hydroxyphenyl)-vinylphosphonic acid]	57.9 ± 1.6	79.6 ± 3.3	442.4 ± 2.3	553.3 ± 32.7		did not exhibit any activity	
O=C1c2ccccc2C(=O)N1C/C=C/c1ccc(O)cc1 [Compound 116, N-(para-Coumaryl)phthalimide]	24.3 ± 1.5	39.3 ± 3.5	889.1 ± 61.8	1466.4 ± 17.8	100	showed inhibitory effect; also recorded: moderated inhibitory activity	27.0 ± 2.1
NC/C=C/c1ccc(O)cc1 [Compound 117, para-Coumarylamine]	49.8 ± 1.6	73.1 ± 2.0	452.6 ± 9.5	547.9 ± 112.4		did not show any inhibitory activity	
O=C(/C=C/c1ccccc1F)NO [Compound 154, trans-2-Fluorocinnamohydroxamic acid]			111.4 ± 15.1	77.8 ± 1.3			
O=C(/C=C/c1ccc([N+](=O)[O-])cc1)NO [Compound 155, trans-4-Nitrocinnamohydroxamic acid]			108.4 ± 8.5	132.5 ± 2.6			
O=C(/C=C/c1cccc([N+](=O)[O-])c1)NO [Compound 156, trans-3-Nitrocinnamohydroxamic acid]			67.8 ± 17.9	99.5 ± 4.9			
O=C(/C=C/c1ccccc1[N+](=O)[O-])NO [Compound 157, trans-2-Nitrocinnamohydroxamic acid]			104.6 ± 7.3	96.2 ± 3.3			
COc1cccc(/C=C/C(=O)NO)c1 [Compound 158, trans-3-Methoxycinnamohydroxamic acid]			216.2 ± 12.5	250.6 ± 13.9			
COc1ccccc1/C=C/C(=O)NO [Compound 159, trans-2-Methoxycinnamohydroxamic acid]			256.3 ± 10.8	337.3 ± 15.2			
Cc1ccccc1/C=C/C(=O)NO [Compound 160, trans-2-Methylcinnamohydroxamic acid]			122.7 ± 1.9	95.7 ± 3.7			
O=C(/C=C/c1cccs1)NO [Compound 161, trans-3-(2-Thienyl)acrylhydroxamic acid]			132.4 ± 13.2	145.0 ± 11.7			
O=C(/C=C/c1ccco1)NO [Compound 163, trans-3-(2-Furyl)acrylhydroxamic acid]			231.5 ± 7.0	196.5 ± 14.9			
O=C(O)/C=C/c1ccc(C(=O)Cc2ccccc2)cc1 [Compound 164, trans-4-(Benzylcarbonyl)cinnamic acid]			155.7 ± 22.2	116.4 ± 6.7			
O=C(Cc1ccccc1)c1ccc(C2CC2C(=O)O)cc1 (stereo not drawn) [Compound 165, trans-2-[(4′-Benzylcarbonyl]phenylcyclopropane-1-carboxylic acid]			292.8 ± 17.1	229.4 ± 15.0			
O=C(O)/C=C/c1ccc(C(=O)Nc2ccccc2)cc1 [Compound 166, trans-4-(Carbo-phenylamide)cinnamic acid]			105.0 ± 53.0	221.2 ± 22.2			
CN(C(=O)c1ccc(/C=C/C(=O)O)cc1)c1ccccc1 [Compound 167, trans-4-(Carbo-N-methyl-phenylamide)cinnamic acid]			729.7 ± 67.5	707.3 ± 55.9			
Benzoic acid [Compound 034]			48.1 ± 5.4	32.6 ± 1.9			
